Assay results as given in patent publication US7935708B2, “Dihydropyrazolopyrimidinone derivatives” (MSD K.K., priority 2006, dated 2011).

Tests used:
[1] = tested on: Human colon cancer cells WiDr; experiment: Tumor growth-inhibitory effect, WiDr implanted subcutaneously in nude rats; assay type: in vivo, F344/N Jcl-mu nude rats; conditions: statement on Table 5
Experimental: Pharmaceutical Test 4 (Tumor Growth-Inhibitory Effect)
Human colon cancer cells WiDr (gotten from ATCC) were implanted into the subcutaneous area of the back of F344/N Jcl-mu nude rats. Eight days after the implantation, gemcitabine (50 mg/kg, Gemzar injection, Eli-Lilly) was intravenously administered to them; and after 24 hours, a test compound was dissolved in a solvent (5% glucose) and given to them through continuous intravenous injection for 8 hours. The tumor volume (0.5×(major diameter)×(minor diameter)^2) was determined on day 0, 3, 6, 10 and 13. Day 0 means the day on which gemcitabine was administered. The relative tumor volume is a relative value, as calculated on the basis of the tumor volume of 1 on day 0. The tumor growth percentage (% T/C) was obtained according to the following formula:
When the tumor volume change from day 0 in the group subjected to test compound administration is more than 0 (>0): % T/C=[(tumor volume change in the test compounds on day 3, 6, 10, 13)/(tumor volume change in the control on day 3, 6, 10, 13)]×100. When the tumor volume change from day 0 in the group subjected to test compound administration is less than 0 (<0): % T/C=[(tumor volume change in the test compounds on day 3, 6, 10, 13)/(tumor volume […])]×100.

[2] = tested on: Cdc2 (Cdk1) tyrosine 15 phosphorylation in NCI-H1299 cells; experiment: Cdc2 (Cdk1) tyrosine 15-phosphorylation-inhibitory effect in camptothecin-treated NCI-H1299 cells (ELISA); assay type: cell-based; conditions: Homo sapiens, camptothecin 200 nM 16 hours, then test compound with nocodazole 8 hours, read-out: Cdc2-Y15 Phosphorylation-Inhibitory Effect (H1299, + camptothecin) (EC50)
Excerpt: Pharmaceutical Text 2 (Method of Determining Drug Potency in Cells (Cdc2 (Cdk1) Tyrosine 15-Phosphorylation-Inhibitory Effect))
Fetal bovine serum (FBS) was obtained from Morgate; media RPMI1640 and DMEM were from Invitrogen; camptothecin was from Sigma; gemcitabine was from Nippon Eli Lilly; nocodazole and protease inhibitor cocktail were from Sigma; rabbit anti-Cdc2 antibody and mouse anti-Cdc2 antibody were from Santa Cruz Biotechnology; rabbit anti-tyrosine 15-phosphorylated Cdc2 antibody and horseradish peroxidase-labeled anti-mouse IgG antibody were from Cell Signaling Technology; sure blue reserve TMB peroxidase substrate was from Kirkegaard and Perry Laboratories.
Human non-small cell lung cancer cells (NCI-H1299) and human colon cancer cells (WiDr) were obtained from American Type Culture Collection (ATCC).
(§1) c) Method of Effect Determination:
In the method of using NCI-H1299 cells, the cells were suspended in RPMI1640 containing 10% FBS, and the cell suspension was applied to a 96-well Nunclondelta-processed plastic plate (bought from Nunc), in an amount of 2000 cells/100 μL/well, in which the cells were incubated overnight in 5% CO2-95% air at 37° C. Camptothecin was dissolved in dimethylsulfoxide (DMSO), and diluted with RPMI1640 containing 10% FBS, and then this was applied to the plate on which the cells had been previously sowed, in an amount of 50 μL/well in such a manner that the final concentration of camptothecin could be 200 nM. Then, the cells were incubated for 16 hours at 37° C. in 5% CO2-95% air. The test compound was stepwise diluted with DMSO, then diluted with 4000 nM nocodazole-containing RPMI1640 containing 10% FBS, and applied to the plate on which the camptothecin-treated cells had been sowed, in an amount of 50 μL/well. The cells were incubated for 8 hours at 37° C. in 5% CO2-95% air, then the medium was removed, and a cytolytic buffer was added to the plate in an amount of 100 μL/well, shaken at 4° C. for 2 hours, then frozen at −80° C., and melted to give a cell solution. Cdc2 and tyrosine 15-phosphorylated Cdc2 in the cell solution were determined through enzyme-linked immunosorbent assay (ELISA), and the ratio of tyrosine 15-phosphorylated Cdc2 to Cdc2 was calculated to obtain the 50% phosphorylation-inhibitory concentration of the test compound to the cells (EC50, nM). The cytolytic buffer used herein is an aqueous solution containing 20 mM Hepes (pH 7.5), 150 mM sodium chloride, 1 mM disodium ethylenediaminetetraacetate, 0.1% polyoxyethylene (10) octylphenyl ether, 1% protease inhibitor cocktail, 1 mM dithiothreitol, 2 mM sodium orthovanadate, 10 mM sodium fluoride and 10 mM glycerol diphosphate. Cdc2 was determined through ELISA as follows: A rabbit anti-Cdc2 antibody solution, which had been diluted 200-fold with 50 mM carbonate-bicarbonate buffer (pH 9.6), was applied to a 96-well maxisorpimmuno plate (bought from Nunc), in an amount of 50 μL/well, and statically kept overnight at 4° C. so as to fix the antibody on the plate. Next, this was washed three times with phosphate-buffered saline (PBS), and 5% bovine serum albumin-containing PBS (5% BSA/PBS) was added thereto in an amount of 300 μL/well, and statically kept at room temperature for 2 hours, and then again washed three times with PBS. A mouse anti-Cdc2 antibody solution that had been diluted 100-fold with 0.05% polyoxyethylene sorbitan monolaurate and 1% BSA-containing Tris-HCl-buffered saline (1% BSA/TBS-T) was added to it in an amount of 50 μL/well, and the cell solution was added thereto in an amount of 5 μL/well and statically kept overnight at 4° C. Next, this was washed three times with 0.05% polyoxyethylene sorbitan monolaurate and 0.1% BSA-containing Tris-HCl-buffered saline (0.1% BSA/TBS-T), and then a horseradish peroxidase-labeled anti-mouse IgG antibody solution that had been diluted 2000-fold with 1% BSA/TBS-T was added thereto in an amount of 70 μL/well, and statically kept at room temperature for 3 hours. […]

[3] = tested on: Human colon cancer cells (WiDr); experiment: Checkpoint escape effect in gemcitabine-treated WiDr cells (phosphorylated histone H3-positive cells); assay type: cell-based; conditions: gemcitabine 100 nM 24 hours, then test compound with nocodazole 8 hours
Excerpt: Pharmaceutical Text 3 (Method of Determining Drug Potency in Cells (Checkpoint-Removing Effect))
Fetal bovine serum (FBS) was obtained from Morgate; DMEM was from Invitrogen; gemcitabine was from Nippon Eli Lilly; nocodazole and 4′,6-diamidino-2-phenylindole were from Sigma; rabbit anti-phosphorylated histone H3 antibody was from Upstate; and fluorescence-labeled (Alexa Fluor 488) anti-rabbit IgG antibody was from Molecular Probe.
Human colon cancer cells (WiDr) were obtained from American Type Culture Collection (ATCC).
as §1
The cells were suspended in DMEM containing 10% FBS, and the cell suspension was applied to a poly-D-lysine-coated 96-well plastic plate (bought from Becton Dickinson) in an amount of 2000 cells/100 μL/well, in which the cells were incubated overnight in 5% CO2-95% air at 37° C. Gemcitabine was dissolved in phosphate-buffered saline (PBS), and diluted with DMEM containing 10% FBS, and then this was applied to the plate on which the cells had been previously sowed, in an amount of 50 μL/well in such a manner that the final concentration of gemcitabine could be 100 nM. Then, the cells were incubated for 24 hours at 37° C. in 5% CO2-95% air. The test compound was stepwise diluted with dimethylsulfoxide, then diluted with 1200 nM nocodazole-containing DMEM containing 10% FBS, and applied to the plate on which the gemcitabine-treated cells had been sowed, in an amount of 50 μL/well. […] Next, this was washed with PBS, and a solution containing 4′,6-diamidino-2-phenylindole that had been diluted with 1% BSA/PBS to have a concentration 10 μg/mL and a fluorescence-labeled (Alexa Fluor 488) anti-rabbit IgG antibody that had been diluted 250-fold was added to it in an amount 50 μL/well, and reacted in a dark place at room temperature for 60 minutes. Finally, this was washed with PBS, and its fluorescence intensity was determined to calculate the ratio of the phosphorylated histone H3-positive cells (cells that had been in a cell division cycle through removal of checkpoint). […]

| EC50 [2] [µM] | EC50 [3] [µM] | SMILES | tumor growth percentage (in words) [1] |
| --- | --- | --- | --- |
|  |  | Nc1ccn([C@@H]2O[C@H](CO)[C@@H](O)C2(F)F)c(=O)n1 [Gemcitabine, gemcitabine] | reduced the tumor growth percentage |
| 0.1 | 0.11 | CC(C)n1c(=O)c2cnc(Nc3ccc(C4CCN(C)CC4)cc3)nc2n1-c1cccc(C(C)(C)O)n1 [Example 147, 1-[6-(1-hydroxy-1-methylethyl)pyridin-2-yl]-2-isopropyl-6-{[4-(1-methylpiperidin-4-yl)phenyl]amino}-1,2-dihydro-3H-pyrazolo[3,4-d]pyrimidin-3-one] |  |
